Assay results reported in ChEMBL document CHEMBL1201862, “PubChem BioAssay data set” (2004).
Activity calls are given as the source filed them.

Columns and labels:
cells [1] = experiment: cells
[2] = target: T1, Oxysterols receptor LXR-beta (Homo sapiens, UniProt P55055); format: functional, cell-based;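 also: Cell-based luminescence dose-response assay of agonist activity at LXR, run as a confirmatory counterscreen to a daf-12 agonist screen; agonist potency from rising luciferase signal of a Gal4-LXR reporter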
T1 sequence (P55055 whole entry): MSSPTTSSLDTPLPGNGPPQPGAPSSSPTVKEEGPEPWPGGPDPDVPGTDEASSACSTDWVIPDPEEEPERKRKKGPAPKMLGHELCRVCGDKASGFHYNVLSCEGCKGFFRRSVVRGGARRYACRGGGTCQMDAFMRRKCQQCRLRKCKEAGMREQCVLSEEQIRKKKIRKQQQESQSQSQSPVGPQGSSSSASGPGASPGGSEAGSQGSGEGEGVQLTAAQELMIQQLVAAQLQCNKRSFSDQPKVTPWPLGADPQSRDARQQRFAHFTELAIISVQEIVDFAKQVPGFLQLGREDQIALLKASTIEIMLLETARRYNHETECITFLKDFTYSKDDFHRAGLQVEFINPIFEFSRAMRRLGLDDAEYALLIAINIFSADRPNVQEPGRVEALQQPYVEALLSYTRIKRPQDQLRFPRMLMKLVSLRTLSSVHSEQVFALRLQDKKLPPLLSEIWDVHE

[3] = target: T1, Oxysterols receptor LXR-beta; experiment: LXR agonists, Gal4 luciferase reporter, dose response, counter-screen for ssDAF-12 agonist project, cell-based, luminescence, HEK293, S. stercoralis campaign (AID 720737); format: functional; conditions: read-out: IC50 (the source's name)
[4] = Luminescence-based cell-based high throughput dose response assay to identify activators of the DAF-12 from the parasite S. stercoralis (ssDAF-12).; format: functional
[5] = C. albicans growth with fluconazole, confirmation, fluorescence, retest (AID 2467); format: functional, cell-based
[6] = NIH-3T3 fibroblast cytotoxicity, dose response, cytotoxicity control, cell-based, fluorescence, Alamar Blue, secondary assay (AID 2327); format: functional;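 also: NIH-3T3 mouse fibroblasts cultured with fluconazole at 8 µg/mL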
[7] = HepG2 cell cytotoxicity, dose response, cytotoxicity control, ATP luminescence, cherry-pick, activator set 2 (AID 1053143); format: functional, cell-based
Albumin = Albumin (Bos taurus, UniProt P02769); experiment: Counterscreen for inhibitors of T-cell receptor (TCR)-CD3 interaction: Fluorescence-based biochemical high throughput dose response assay to identify inhibitors of T-cell receptor (TCR)-CD3 interaction using a TAMRA-labeled BSA probe.; format: functional
Albumin, sequence (P02769 whole entry): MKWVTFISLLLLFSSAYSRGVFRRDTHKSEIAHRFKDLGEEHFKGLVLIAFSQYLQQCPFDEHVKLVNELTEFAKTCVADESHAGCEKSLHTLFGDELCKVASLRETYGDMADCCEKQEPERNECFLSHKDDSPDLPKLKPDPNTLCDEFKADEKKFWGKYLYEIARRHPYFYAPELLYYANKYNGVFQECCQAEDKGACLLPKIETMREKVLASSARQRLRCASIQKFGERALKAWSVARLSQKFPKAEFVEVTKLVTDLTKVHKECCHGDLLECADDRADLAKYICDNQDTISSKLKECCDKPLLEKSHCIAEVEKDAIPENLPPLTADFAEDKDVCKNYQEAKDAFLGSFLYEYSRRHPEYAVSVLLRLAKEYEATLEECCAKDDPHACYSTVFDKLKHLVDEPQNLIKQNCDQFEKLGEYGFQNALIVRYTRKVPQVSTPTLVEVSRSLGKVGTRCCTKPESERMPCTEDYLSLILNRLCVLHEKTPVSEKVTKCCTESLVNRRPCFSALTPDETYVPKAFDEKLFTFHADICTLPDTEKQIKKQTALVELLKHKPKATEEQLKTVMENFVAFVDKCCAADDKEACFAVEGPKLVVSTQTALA

[8] = inhibitors of SNCA 5'UTR-driven reporter translation, confirmation, H4 neuroglioma cells, luminescence (AID 1988); format: functional, cell-based
[9] = inhibitors of firefly luciferase expression or activity, dose response, H4 neuroglioma cells, luminescence (AID 1990); format: functional, cell-based
cells [10] = format: functional, cell-based
[11] = cytotoxicity toward NIH3T3 fibroblasts, dose response, counter-screen, cell-based, ATP luminescence, mouse fibroblasts (AID 2010); format: functional;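 also: cells exposed to compound for about 90 hours before reading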
H9c2 = experiment: cells; format: functional, cell-based; conditions: Rattus norvegicus, H9c2, Myocardium;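 also: confirmatory concentration-response retest of ultra-high-throughput screening hits for modulation of myocardial damage; cell death induced by hydrogen peroxide oxidative stress; compound pretreatment for 60 min then peroxide exposure for 2 h; potency is for protecting the cells against peroxide damage rather than for killing them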
cells [12] = format: functional, cell-based; remark: listed apart in the source
[13] = inhibitors of intracellular T. cruzi replication, confirmation, NIH3T3 host cells, beta-gal luminescence (AID 2044); format: functional, cell-based;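 also: intracellular parasites grown in NIH/3T3 mouse fibroblasts as host cells; luminescent beta-galactosidase reporter signal from transgenic T. cruzi replicating inside host cells; inhibitors lower the luminescence signal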
[14] = Luminescence Cell-Based Dose Response HTS to Identify Inhibitors of 5'UTR Stem-Loop Driven Prion Protein mRNA Translation in H4 Neuroglioblastoma Cells. [Related pubchem assays: 1827 (Project Summary), 1813 (Primary HTS)]; format: functional
[15] = target: T2, Methionyl-tRNA synthetase, putative (Trypanosoma brucei brucei, UniProt Q38C91); format: functional, Trypanosoma brucei brucei strain 927/4 GUTat10.1
T2 sequence (Q38C91 whole entry): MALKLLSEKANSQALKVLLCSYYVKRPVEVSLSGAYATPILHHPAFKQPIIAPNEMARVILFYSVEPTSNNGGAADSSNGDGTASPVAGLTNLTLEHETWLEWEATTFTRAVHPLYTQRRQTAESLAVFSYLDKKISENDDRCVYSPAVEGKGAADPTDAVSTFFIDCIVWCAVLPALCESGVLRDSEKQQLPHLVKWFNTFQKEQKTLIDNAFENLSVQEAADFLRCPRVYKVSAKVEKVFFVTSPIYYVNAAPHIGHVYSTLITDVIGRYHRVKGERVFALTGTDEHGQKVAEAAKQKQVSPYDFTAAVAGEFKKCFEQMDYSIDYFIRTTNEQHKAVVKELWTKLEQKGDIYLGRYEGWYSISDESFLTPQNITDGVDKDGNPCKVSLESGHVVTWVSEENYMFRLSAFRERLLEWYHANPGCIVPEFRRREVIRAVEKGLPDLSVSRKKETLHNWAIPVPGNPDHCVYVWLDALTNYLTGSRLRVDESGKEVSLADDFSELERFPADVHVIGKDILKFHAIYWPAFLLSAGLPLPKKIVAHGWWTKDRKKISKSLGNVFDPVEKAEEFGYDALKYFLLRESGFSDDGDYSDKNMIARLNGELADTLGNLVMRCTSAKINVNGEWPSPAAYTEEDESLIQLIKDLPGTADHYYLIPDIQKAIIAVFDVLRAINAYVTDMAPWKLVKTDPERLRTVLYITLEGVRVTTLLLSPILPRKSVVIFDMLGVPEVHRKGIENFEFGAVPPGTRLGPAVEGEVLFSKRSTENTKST

Streptokinase A = target: T3, Streptokinase A (Streptococcus pyogenes serotype M1, UniProt P10520); experiment: S. pyogenes streptokinase expression inhibitors, potency, dose response, plasminogen activation absorbance, OD405 (AID 1914); format: functional, Streptococcus pyogenes M1 GAS;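 also: secreted streptokinase activity via plasminogen activation per viability signal from cell pellet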
T3 sequence (P10520 whole entry): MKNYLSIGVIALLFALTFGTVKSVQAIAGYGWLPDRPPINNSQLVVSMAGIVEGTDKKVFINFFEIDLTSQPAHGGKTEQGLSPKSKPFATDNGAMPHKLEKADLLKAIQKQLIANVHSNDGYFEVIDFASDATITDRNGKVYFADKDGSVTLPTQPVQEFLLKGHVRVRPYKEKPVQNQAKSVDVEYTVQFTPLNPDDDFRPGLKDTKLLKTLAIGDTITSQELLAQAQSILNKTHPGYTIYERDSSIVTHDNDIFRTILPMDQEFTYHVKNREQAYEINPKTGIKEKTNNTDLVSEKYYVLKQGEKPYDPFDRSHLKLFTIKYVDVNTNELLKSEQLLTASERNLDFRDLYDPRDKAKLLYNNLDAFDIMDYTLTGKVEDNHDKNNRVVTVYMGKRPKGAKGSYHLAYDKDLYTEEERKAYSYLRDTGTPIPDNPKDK

[16] = target: T2, Methionyl-tRNA synthetase, putative; format: functional, Trypanosoma brucei brucei strain 927/4 GUTat10.1; remark: listed apart in the source
[17] = Counterscreen for inhibitors of Trypanosoma brucei methionyl tRNA synthetase (MetRS): Luminescence-based cell-based high throughput dose response assay to identify compounds that are cytotoxic to Jurkat human T lymphocyte cells.; format: functional
[18] = M. tuberculosis H37Rv growth inhibitors, H37Rv strain (AID 1626); format: functional
[19] = tested on: Streptococcus sp. 'group A'; experiment: growth inhibition of control SK(-) GAS strain, dose response, counter-screen for streptokinase expression inhibitor project, luminescence, kanamycin, BacTiterGlo, confirmation (AID 1900); format: functional, organism-based
Streptococcus = experiment: Group A Streptococcus viability loss, dose response, counter-screen for streptokinase expression inhibitor project, luminescence, BacTiterGlo (AID 1915); format: functional, organism-based;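 also: potency for reduction of bacterial viability or growth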
[20] = HEK293 cell cytotoxicity, dose response, cytotoxicity control, plate reader, cherry-picked samples (AID 743446); format: functional, cell-based
[21] = LGR2 antagonists, dose response, cell-based, HEK293, CRE-luciferase reporter, cherry pick, set 2 (AID 743343); format: functional;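 also: transfected cells were stimulated with diluted bursicon conditioned medium after compound addition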
[22] = HepG2 cell cytotoxicity, dose response, cytotoxicity control, plate reader, cherry-pick, antagonist series (AID 743416); format: functional, cell-based
[23] = A549 cell cytotoxicity, dose response, cytotoxicity control, plate reader, cherry-pick, antagonist series (AID 743412); format: functional, cell-based
[24] = MC4R antagonists, dose response, counter-screen for LGR2 antagonist project, cell-based, plate reader, cherry pick (AID 743444); format: functional;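 also: transfected HEK 293 cells stimulated with alpha-MSH peptide; potency of inhibitors of the alpha-MSH evoked signal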
[25] = growth suppression of PTEN-null colon cells, dose response, cell-based, HCT116 PTEN knockout (AID 1047); format: functional;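 also: HCT116 colon tumor cells with PTEN knocked out; cells exposed to compound for 60 hours before readout; potency for loss of cell viability measured by luminescence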
[26] = growth suppression of beta-catenin-knockout colon cells, dose response, cell-based, HCT116, human colon tumor (AID 1045); format: functional;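 also: HCT116 colon tumor cells with beta catenin knocked out; cells exposed to compound for 60 hours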

Cc1sc(NC(=O)c2ccc(Cl)s2)c(C(N)=O)c1C
EC50 (cells [1]): > 67.5 µM (inactive) | EC50 [2]: > 67.5 µM (inactive)

Cn1cnc(NCc2ccccc2)c1[N+](=O)[O-]
EC50 [3]: > 67.5 µM (inactive) | IC50 [4]: > 67.5 µM (inactive)

Cc1cccc(NC(S)=NNC(=O)c2cc3c(s2)CCC(C)C3)c1C (stereo unspecified)
EC50 [5]: > 38 µM (not active) | EC50 [6]: > 150 µM (inactive) | EC50 [3]: > 67.5 µM (inactive) | IC50 [4]: > 67.5 µM (inactive)

Cc1cc(C)cc(NC(=O)Nc2ccc(N3CCCCC3)cc2)c1
AC50 [7]: 26 µM (active)

COc1cc2ccccc2cc1C(=O)NNC(=O)c1ccccc1O
IC50 (Albumin): > 94.2 µM (inactive) | EC50 [5]: > 38 µM (not active) | EC50 [8]: 16.1 µM (active) | EC50 [6]: > 150 µM (inactive) | EC50 [9]: > 60 µM (not active) | EC50 (cells [10]): > 350 µM (not active) | EC50 [11]: > 60 µM (not active) | IC50 (H9c2): > 79 µM (inactive) | EC50 (cells [12]): > 350 µM (not active) | EC50 [13]: > 60 µM (not active) | EC50 [14]: 14.9 µM (active)

COc1ccc(-c2nnc(SC(C(=O)c3c[nH]c4ccccc34)c3ccccc3)n2N)cc1OC (stereo unspecified)
IC50 [15]: 99 µM (inactive) | EC50 (Streptokinase A): > 150 µM (not active) | IC50 [16]: 33.8 µM (inactive) | IC50 [17]: 83.3 µM (inactive) | IC50 [18]: > 100 µM (active) | EC50 [19]: 8.65 µM (active) | EC50 (Streptococcus): 102 µM (active)

Cc1cccc(-c2noc(-c3ccc4c(c3)OCO4)n2)c1
AC50 [20]: > 52 µM (inactive) | AC50 [21]: 9.54 µM (active) | AC50 [22]: > 52 µM (inactive) | AC50 [23]: > 52 µM (inactive) | AC50 [24]: 12.1 µM (active)

Cc1ccc2nc(-c3ccc(NC(=O)COC(=O)c4ccc(Br)o4)cc3)sc2c1
EC50 [3]: > 67.5 µM (inactive) | IC50 [4]: > 67.5 µM (inactive) | EC50 [25]: 37.3 µM (active) | EC50 [26]: 79.7 µM (active)
